Measured values taken from publication PMC5038265 (Antimicrobial Agents and Chemotherapy, 2016).
Converted amounts (≈) assume the structure as drawn. Like-named read-outs stand apart in the source and are kept apart here.

Legend:
M. tuberculosis LeuRS = M. tuberculosis LeuRS (Mycobacterium tuberculosis, UniProt P9WFV1); assay: biochemical; design: species or system M. tuberculosis H37Rv
M. tuberculosis H37Rv = assay: MIC for M. tuberculosis H37Rv (resazurin/alamarBlue); type: cell-based, Mycobacterium tuberculosis; conditions: for MIC: Mycobacterium tuberculosis, H37RV, read-out: MIC M.tb H37Rv; for improvement of MIC values over compound 1: M. tuberculosis H37Rv
Vero cells = assay: In vitro cytotoxicity assay (MTT); type: cell-based, African green monkey; conditions: Chlorocebus sabaeus, 72 h
Protocol: Vero epithelial cells (from African green monkey; ATCC CCL-81) were cultured in Dulbecco's modified Eagle's medium (DMEM) supplemented with 10% fetal bovine serum (FBS) and maintained in a humidified incubator (37°C in 5% CO2). Cells were dislodged with a cell scraper, collected by centrifugation, resuspended in fresh medium at ∼10^6 cells/ml, dispensed into 96-well microtiter plates ([…]), and incubated for 18 h at 37°C. Twofold serial dilutions of test compounds in DMEM with FBS were subsequently added, and cells were incubated for another 72 h. In triplicate studies, the cytopathic effects of compounds were evaluated colorimetrically by using the 3-(4,5-dimethyl-2-thiazolyl)-2,5-diphenyl-2H-tetrazolium bromide (MTT) cell proliferation assay (ATCC). IC50 data were obtained from dose-response curves plotted by using GraphPad Prism 5.

COX1 in HepG2 cells = assay: Mitochondrial protein synthesis assay, COX1 level; type: cell-based; conditions: Homo sapiens, 168 h; HepG2, 7 days; read-out: Mean EC50 ± SD COX1
Protocol: (§1) The human liver carcinoma-derived HepG2 cell line was obtained from the ATCC (ATCC HB-8065). HepG2 cells were grown in Dulbecco's modified Eagle's medium containing 10% fetal calf serum, 1 mM sodium pyruvate, 0.1 mM essential amino acids, and 50 U/ml penicillin-streptomycin at 37°C with 5% CO2. HepG2 cells were seeded into 96-well plates at 3,000 cells/200 μl/well in cell culture medium. Cells were then grown in the presence of the compounds at 37°C in 10% CO2 for 7 days in at least duplicate concentrations, with the medium and compounds being replaced on the fourth day. After 7 days, the levels of SDHA (subunit A of the succinate dehydrogenase complex) and COX1 (cytochrome c oxidase) were determined by using the MitoSciences In-Cell enzyme-linked immunosorbent assay (ELISA) kit. Janus green staining was used to determined cell viability after 7 days (In-Cell ELISA kit, catalog number MS643).

SDHA in HepG2 cells = assay: Mitochondrial protein synthesis assay, SDHA level; type: cell-based; conditions: Homo sapiens, 168 h; HepG2, 7 days; read-out: Mean EC50 ± SD SDHA
Protocol: as §1

HepG2 cells = assay: HepG2 cell viability (Janus green staining); type: cell-based; conditions: Homo sapiens, 168 h, HepG2, 7 days, read-out: Mean EC50 ± SD Cell viability
Protocol: as §1

Sequence of M. tuberculosis LeuRS (P9WFV1 whole entry): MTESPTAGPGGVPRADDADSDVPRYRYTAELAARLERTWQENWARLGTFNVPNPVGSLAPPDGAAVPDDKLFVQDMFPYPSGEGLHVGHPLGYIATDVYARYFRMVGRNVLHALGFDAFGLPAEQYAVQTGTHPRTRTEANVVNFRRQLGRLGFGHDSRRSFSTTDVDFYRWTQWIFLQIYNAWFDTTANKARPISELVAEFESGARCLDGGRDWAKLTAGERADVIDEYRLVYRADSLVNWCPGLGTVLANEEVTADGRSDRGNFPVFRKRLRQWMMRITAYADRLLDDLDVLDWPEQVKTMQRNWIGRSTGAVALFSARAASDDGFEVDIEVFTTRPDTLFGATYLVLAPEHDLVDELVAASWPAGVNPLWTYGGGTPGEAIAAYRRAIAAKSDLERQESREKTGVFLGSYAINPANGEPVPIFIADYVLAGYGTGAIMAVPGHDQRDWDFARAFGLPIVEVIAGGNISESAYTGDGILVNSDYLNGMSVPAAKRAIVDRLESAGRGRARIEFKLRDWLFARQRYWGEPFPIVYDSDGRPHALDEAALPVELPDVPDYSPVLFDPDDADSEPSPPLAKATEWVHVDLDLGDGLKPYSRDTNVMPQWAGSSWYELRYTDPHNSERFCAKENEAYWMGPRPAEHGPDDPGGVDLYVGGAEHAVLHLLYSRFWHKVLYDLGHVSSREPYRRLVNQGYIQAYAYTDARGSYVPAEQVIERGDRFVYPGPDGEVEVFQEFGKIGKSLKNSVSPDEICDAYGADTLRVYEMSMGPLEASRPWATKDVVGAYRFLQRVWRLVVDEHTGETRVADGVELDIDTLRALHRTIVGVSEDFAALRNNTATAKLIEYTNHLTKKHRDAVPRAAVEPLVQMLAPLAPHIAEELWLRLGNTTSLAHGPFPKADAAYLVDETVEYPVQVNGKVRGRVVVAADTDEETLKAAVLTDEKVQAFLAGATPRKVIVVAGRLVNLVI

CCOc1ccc(C)c2c1B(O)OC2CN (stereo not shown) [Compound 8]
IC50 (M. tuberculosis LeuRS; read-out: IC50 M.tb LeuRS): 0.2 µM
MIC (M. tuberculosis H37Rv): 0.04 µg/mL (≈ 0.181 µM)
EC50 (Vero cells): > 50 µM

CCOc1cc(Cl)cc2c1B(O)OC2CN (stereo not shown) [Compound 5]
IC50 (M. tuberculosis LeuRS; read-out: IC50 M.tb LeuRS): 0.38 µM
MIC M.tb H37Rv (M. tuberculosis H37Rv): ≥ 1.1 µg/mL
MIC (M. tuberculosis H37Rv): 1.2 µg/mL (≈ 4.97 µM)
EC50 (Vero cells): 43 µM

CCOc1ccc(Cl)c2c1B(O)OC2CN (stereo not shown) [Compound 4]
IC50 (M. tuberculosis LeuRS): 0.09 µM
improvement of MIC values over compound 1 (M. tuberculosis H37Rv): more than 5 fold
MIC (M. tuberculosis H37Rv): 0.04 µg/mL (≈ 0.166 µM)
EC50 (Vero cells): > 50 µM

OB1OCc2ccccc21 [AN2679]
IC50 (M. tuberculosis LeuRS; read-out: IC50 M.tb LeuRS): 21.3 µM
MIC (M. tuberculosis H37Rv): 7.5 µg/mL (≈ 56 µM)

CCOc1cccc2c1B(O)O[C@H]2CN [Compound 3]
IC50 (M. tuberculosis LeuRS; read-out: IC50 M.tb LeuRS): 21 µM
EC50 (Vero cells): > 50 µM

CCOc1ccc(CC)c2c1B(O)OC2CN (stereo not shown) [Compound 9]
IC50 (M. tuberculosis LeuRS; read-out: IC50 M.tb LeuRS): 0.31 µM
MIC (M. tuberculosis H37Rv): 0.29 µg/mL (≈ 1.23 µM)
EC50 (Vero cells): > 50 µM

O=C(N[C@H](CO)[C@H](O)c1ccc([N+](=O)[O-])cc1)C(Cl)Cl [Chloramphenicol, chloramphenicol]
EC50 (COX1 in HepG2 cells): 31.4 ± 23.2 µM
EC50 (SDHA in HepG2 cells): > 150 µM
EC50 (HepG2 cells): 110 ± 14.1 µM

CCOc1ccc(-c2ccccc2)c2c1B(O)OC2CN.Cl (stereo not shown) [Compound 10, 3-(Aminomethyl)-7-ethoxy-4-phenylbenzo[c][1,2]oxaborol-1(3H)-ol hydrochloride]
IC50 (M. tuberculosis LeuRS; read-out: IC50 M.tb LeuRS): 28 µM
MIC (M. tuberculosis H37Rv): 17 µg/mL
EC50 (Vero cells): > 50 µM

OCCCOc1cccc2c1B(O)OC2 [AN3016]
IC50 (M. tuberculosis LeuRS; read-out: IC50 M.tb LeuRS): 3.5 µM
MIC M.tb H37Rv (M. tuberculosis H37Rv): 1.0 µg/mL (≈ 4.81 µM)
MIC (M. tuberculosis H37Rv): 1 µg/mL (≈ 4.81 µM)

CCOc1ccc(F)c2c1B(O)OC2CN (stereo not shown) [Compound 6]
IC50 (M. tuberculosis LeuRS; read-out: IC50 M.tb LeuRS): 0.11 µM
improvement of MIC values over compound 1 (M. tuberculosis H37Rv): more than 5 fold
MIC (M. tuberculosis H37Rv): 0.05 µg/mL (≈ 0.222 µM)
EC50 (Vero cells): > 50 µM

C[C@H]1c2cccc(O)c2C(=O)C2=C(O)[C@]3(O)C(=O)C(C(N)=O)=C(O)[C@@H](N(C)C)[C@@H]3[C@@H](O)[C@@H]21 [Doxycycline, doxycycline]
EC50 (COX1 in HepG2 cells): 23.7 ± 6.4 µM
EC50 (SDHA in HepG2 cells): 109 ± 29 µM
EC50 (HepG2 cells): 118 ± 35.5 µM

CCOc1c(F)ccc2c1B(O)OC2CN (stereo not shown) [Compound 7]
IC50 (M. tuberculosis LeuRS; read-out: IC50 M.tb LeuRS): 0.56 µM
MIC M.tb H37Rv (M. tuberculosis H37Rv): ≥ 1.1 µg/mL
MIC (M. tuberculosis H37Rv): > 1.1 µg/mL
EC50 (Vero cells): > 50 µM

NCC1OB(O)c2ccccc21 (stereo not shown) [AN3017]
IC50 (M. tuberculosis LeuRS; read-out: IC50 M.tb LeuRS): 0.64 µM
MIC (M. tuberculosis H37Rv): 1.8 µg/mL (≈ 11 µM)

CC[C@H]1OC(=O)[C@H](C)[C@@H](O[C@H]2C[C@@](C)(OC)[C@@H](O)[C@H](C)O2)[C@H](C)[C@@H](O[C@@H]2O[C@H](C)C[C@H](N(C)C)[C@H]2O)[C@](C)(O)C[C@@H](C)C(=O)[C@H](C)[C@@H](O)[C@]1(C)O [Erythromycin, erythromycin]
EC50 (COX1 in HepG2 cells): > 150 µM
EC50 (SDHA in HepG2 cells): > 150 µM
EC50 (HepG2 cells): > 150 µM
